Measurements: US20240248074A1, “METHOD AND SYSTEM FOR SINGLE-CELL BIOPHYSICAL PROFILING USING A MICROFLUIDIC DEVICE” (NANYANG TECHNOLOGICAL UNIVERSITY, priority 2021, published 2024)
“Also recorded” adds a separate entry of the source. Like-named read-outs stand apart in the source and are kept apart here.

How the values were obtained:
[1] = system: primary neutrophils; test: Multi-parametric biophysical (impedance) profiling of primary neutrophils treated with stimuli; assay type: cell-based, human; conditions: for cell size: 2 hr treatment vs control (FIG. 13B, E); for correlation between CD66b expression and cell size: Example 5 (FIG. 20); for electrical size (cell size): 2 hr treatment (FIG. 17D); for nucleus opacity (|Z|12 MHz/|Z|0.3 MHz): 2 hr treatment (FIG. 17G); for electrical deformability index: 2 hr treatment vs untreated neutrophils (FIG. 17F); for UMAP projection of biophysical features (shift vs control): Example 6, 10 biophysical features (FIG. 21)
[2] = system: primary neutrophils; test: Flow cytometric analysis of neutrophil activation markers and F-actin; assay type: cell-based, human; conditions: for CD11 b expression / CD66b expression: Example 4, 2 hr treatment (FIG. 14)
Experimental: The staining protocols for leukocyte identification are similar as previously described^50. The samples were stained for 30 min at 4° C. with FITC-labelled anti-human CD11 b and allophycocyanin (APC)-labelled anti-human CD66b antibodies. Non-specific antibody binding was examined using corresponding isotype negative control antibodies. The cells were washed once prior to flow cytometry analysis. All antibodies were purchased from eBioscience (1:20 dilution) and analyzed using a BD LSR Fortessa flow cytometer (BD Biosciences).

[3] = system: primary neutrophils; test: Annexin V/Propidium iodide (PI) live-dead staining, flow cytometry; assay type: cell-based, human; conditions: Example 5; STS 1 μM, 2 hr (FIG. 18)
[4] = system: HL-60; test: Immunostaining and flow cytometric analysis of F-actin in HL-60; assay type: cell-based; conditions: treated HL-60 vs control (FIG. 10 B, D, E)
Text: The effect of cytoskeleton disruptors, such as cytochalasin D (CytoD) and latrunculin B (LatB), on HL-60 deformability, was studied (FIG. 10 A-E).

[5] = system: HL-60 (leukemia cell lines); assay type: cell-based
[6] = HL-60 treated with cytoskeleton disruptor vs DMSO treated control (FIG. 10)

Compound	cell size ([1]; Example 4)	correlation between CD66b expression and cell size [1]	electrical size (cell size) ([1]; Example 5)	nucleus opacity (|Z|12 MHz/|Z|0.3 MHz) ([1]; Example 5)	electrical deformability index ([1]; Example 5)	UMAP projection of biophysical features (shift vs control) [1]	CD11 b expression [2]	CD66b expression [2]	F-actin expression [4]	electrical deformability index [5, 6]	also measured
CCCCCCCCCCCCCC(=O)O[C@@H]1[C@@H](C)[C@@]2(O)[C@@H](C=C(CO)C[C@]3(O)C(=O)C(C)=C[C@@H]23)[C@@H]2C(C)(C)[C@]12OC(C)=O [PMA, Phorbol Myristate Acetate]	larger than control	increase in CD66b expression with cell size	largest increase in cell size	significant decrease in nucleus opacities	more deformable	strong biophysical changes	elevated expressions	elevated expressions			impedance profile (cell size / opacity clusters) ([1]; Example 4, PMA 200 nM, 2 hr): two distinct clusters; impedance profile (cell clusters / populations) ([1]; Example 5, PMA 200 nM, 2 hr (FIG. 19)): two distinct cell clusters; also recorded: two distinct cell populations of different size and deformability
CN[C@@H]1C[C@H]2O[C@@](C)([C@@H]1OC)n1c3ccccc3c3c4c(c5c6ccccc6n2c5c31)C(=O)NC4 [STS, Staurosporine]				higher nucleus opacity		strong biophysical changes					membrane opacity ([1]; Example 5, 2 hr treatment vs control (FIG. 17E)): significant increase in membrane opacity; Annexin V / PI expression [3]: increased Annexin V expression
C=C1[C@@H](C)[C@H]2[C@H](Cc3ccccc3)NC(=O)[C@]23[C@H](OC(C)=O)/C=C/[C@@](C)(O)C(=O)[C@@H](C)C/C=C/[C@H]3[C@@H]1O [cytochalasin D]									decreased F-actin expression	higher electrical deformability index	
CSCC[C@H](NC=O)C(=O)N[C@@H](CC(C)C)C(=O)N[C@@H](Cc1ccccc1)C(=O)O [fMLP, N-Formylmethionyl-leucyl-phenylalanine]	larger than control	increase in CD66b expression with cell size	increased		negligible changes	smaller shifts in different directions	elevated expressions	elevated expressions			electrical deformability (deformability index) ([1]; Example 4, 2 hr, fMLP 1 μM, glucose 30 mM, PMA 200 nM, vs untreated control (FIG. 13D)): stiffer cell properties; F-actin expression (MFI) ([2]; Example 5, 2 hr treatment (FIG. 17C)): highest F-actin expression; also recorded: increased F-actin expression
C/C1=C/C(=O)O[C@@H]2C[C@@H](CC[C@H](C)/C=C\CC1)O[C@@](O)([C@@H]1CSC(=O)N1)C2 [latrunculin B]									decreased F-actin expression	higher electrical deformability index	
paraformaldehyde [PFA]											cell size [5]: smaller cell size; electrical deformability index [5]: lower than untreated control
